The record followed here is US11124526B2, “Crystalline beta-lactamase inhibitor” (Allecra Therapeutics SAS, priority 2013, dated 2021).

In brackets after ≈: the same amount, converted by molar mass. Bounds are passed on as bounds.

Type in all cases: physicochemical
Series [1] is described as follows: Solubility assessment of Form C in saline physiological solution (HPLC). The procedure: The Form C solubility was calculated by HPLC employing a dedicated walk-up method. The product obtained by the scaled up procedure described in Example 13 was used to perform the experiments.
1.9 g of the product was suspended in 1 ml of commercial physiologic solution (0.9% of NaCl) at ambient temperature (˜20 ° C.). The suspension resulted slightly opaque and quite viscous after 30 min. After this time the suspension was sampled and the sample injected in HPLC to determine its concentration. After 2 hrs stirring the solid residue was completely dissolved. The addition of more solid was not performed to avoid the gelatinisation of the viscous solution. A sample was taken and injected in HPLC to determine its concentration. The solution was stirred other 3 hrs and sampled again. The 5 hrs sample was also injected in HPLC to determine its concentration.

The nature of series [2]: Stability tests of Form F stored at controlled temperature and RH.
The nature of series [3]: Hygroscopicity of Form F (% weight change at 25° C. and 80% RH). As to the method:
The hygroscopicity was calculated using the following equation: % Weight Change=[(W2−W1)W1]*100 wherein, • W1 is weight of sample at the start of the experiment; and • W2 is weight of sample at 25° C. and 80% RH in the first absorption cycle.

Series [4] can be described thus: Dynamic Vapor Sorption (DVS) of Form F. The conditions noted are these: 25° C. As to the method:
Kinetic moisture sorption measurements were performed at 25° C. and at relative humidity (RH % target as follows: • From 40% RH to 90% RH • Form 90% RH to 0% RH • From 0% RH to 90% RH • From 90% RH to 0% RH The kinetic moisture sorption measurement was performed at 25° C. and in a RH % range described in the following: • From 40% RH to 90% RH • Form 90% RH to 0% RH • From 0% RH to 90% RH • From 90% RH to 0% RH The experiment is performed on 10-15 mg of sample and the equilibrium criterion is set as dm/dt<0.002% w/w in 10 min with a maximum step time of 240 min.

Series [5] can be described thus: Solubility of amorphous compound of formula (I) in selected solvents (slurry stirred 4 hours, mother liquor by HPLC). The note with it: thermodynamic from solid. The procedure: Solubility values of solvents were calculated with respect to the HPLC response factor, set out in FIG. 12.
HPLC response factor was calculated for the amorphous compound of formula (I) using samples dissolved in acetonitrile/water 9/1 with the following method: • Column: ZORBAX Eclipse XDB-C18 (150×4.6 mm, 5 μm) • Temperature: 25° C. • Mobile phase: A: 0.05M Sodium ortophosphate/water, B: Acetonitrile • Gradient: from 5% of B to 95% of B in 10 min • Detector: UV λ=220 nm
Slurries of the amorphous compound of formula (I) in the selected solvents were prepared and stirred at 20° C. and 40° C. for 4 hours. • Samples of each slurry were filtered and the mother liquors injected in HPLC. • The solid residual were isolated and analyzed by XRPD. • The results are summarized in the following Table 4.

A short description of series [6]: Inventors' findings on hygroscopicity and stability of amorphous versus crystalline compound of formula (I).
Where [7] appears, read: 25° C. and 80% RH, first absorption cycle.

`C[n+]1ccn(C[C@@]2(C)[C@H](C(=O)[O-])N3C(=O)C[C@H]3S2(=O)=O)n1` [Form C, (2S,3S,5R)-3-methyl-3-((3-methyl-1H-1,2,3-triazol-3-ium-1-yl)methyl)-7-oxo-4-thia-1-azabicyclo[3.2.0]heptane-2-carboxylate 4,4-dioxide]: the “Formation of impurities in physiologic solution (HPLC traces)” value in series [1] (0.9% NaCl, ambient temperature, up to 5 hrs) is “did not show the formation of significant impurities”. Also, the solubility at 30 min in series [1] (physiologic solution (0.9% NaCl), saline or isotonic, thermodynamic from solid, physiologic solution (0.9% of NaCl), ~20 ° C., timepoint 30 mins, read-out: Solubility (mg/ml) at ambient temperature) turned out to be 772 mg/mL (≈ 2460 mM). In addition, the solubility at 2 h in series [1] (physiologic solution (0.9% NaCl), saline or isotonic, thermodynamic from solid, physiologic solution (0.9% of NaCl), ~20 ° C., timepoint 2 hours, solid completely dissolved, read-out: Solubility (mg/ml) at ambient temperature) was above 883 mg/mL. In addition, the solubility at 5 h in series [1] (physiologic solution (0.9% NaCl), saline or isotonic, thermodynamic from solid, physiologic solution (0.9% of NaCl), ~20 ° C., timepoint 5 hours, read-out: Solubility (mg/ml) at ambient temperature) was above 812 mg/mL.

As to `C[n+]1ccn(C[C@@]2(C)[C@H](C(=O)[O-])N3C(=O)C[C@H]3S2(=O)=O)n1` [Form F, (2S,3S,5R)-3-methyl-3-((3-methyl-1H-1,2,3-triazol-3-ium-1-yl)methyl)-7-oxo-4-thia-1-azabicyclo[3.2.0]heptane-2-carboxylate 4,4-dioxide], in series [2] (after a day at 25° C. and 60% RH), the “Stability on storage (appearance)” value is listed as “becomes a viscous liquid”. Further, the “Stability on storage (appearance)” value in series [2] (after a day at 60° C. and 75% RH) is listed as “becomes a viscous liquid”. In addition, in series [3] (setting [7]), the Hygroscopicity classification result was “very hygroscopic” and the “Mass increase (% Weight Change)” value is “greater than 15%”. Also, in series [3] (high humidity), the “Appearance at high humidity” value is “becomes a viscous liquid”. Besides, the “Relative humidity up to which the form is stable (DVS)” value in series [4] was “approximately 50 % RH”. In addition, the “Weight increase (DVS)” value in series [4] (at 90% RH) is “greater than 50 % w/w”. Moreover, the “Water sorption behaviour after the weight increase at 90% RH (DVS)” value in series [4] (following cycles) is “releases and takes water reversibly”.

`C[n+]1ccn(C[C@@]2(C)[C@H](C(=O)[O-])N3C(=O)C[C@H]3S2(=O)=O)n1` [amorphous compound of formula (I), (2S,3S,5R)-3-methyl-3-((3-methyl-1H-1,2,3-triazol-3-ium-1-yl)methyl)-7-oxo-4-thia-1-azabicyclo[3.2.0]heptane-2-carboxylate 4,4-dioxide]: the solubility at 4 h was 97 mg/mL in series [5] (organic solvent or mixture, 1-butanol, 20° C.); 167 mg/mL in series [5] (organic solvent or mixture, 1-butanol, 40° C.); 295 mg/mL in series [5] (organic solvent or mixture, 1-propanol, 20° C.); above 400 mg/mL in series [5] (organic solvent or mixture, 1-propanol, 40° C.); 23 mg/mL in series [5] (organic solvent or mixture, 2-propanol, 20° C.); 28 mg/mL in series [5] (organic solvent or mixture, 2-propanol, 40° C.). The solubility at 4 h in series [5] (organic solvent or mixture, Acetonitrile, 20° C.) is 6 mg/mL; in series [5] (organic solvent or mixture, Dimethylsulfoxide, 20° C.), above 400 mg/mL; in series [5] (organic solvent or mixture, Dimethylsulfoxide, 40° C.) it was above 400 mg/mL; in series [5] (organic solvent or mixture, Ethanol, 20° C.) it was 420 mg/mL; in series [5] (organic solvent or mixture, Ethanol, 40° C.) it was above 420 mg/mL; in series [5] (organic solvent or mixture, Ethanol/acetone 20%, 20° C.), above 300 mg/mL. In addition, the solubility at 4 h is above 300 mg/mL in series [5] (organic solvent or mixture, Ethanol/acetone 40%, 20° C.); 52 mg/mL in series [5] (organic solvent or mixture, Ethanol/methyl tert-butyl ether 20%, 20° C.); 16 mg/mL in series [5] (organic solvent or mixture, Ethanol/methyl tert-butyl ether 40%, 20° C.); above 400 mg/mL in series [5] (organic solvent or mixture, Methanol, 20° C.); above 400 mg/mL in series [5] (organic solvent or mixture, Methanol, 40° C.); above 400 mg/mL in series [5] (Water, 20° C.). This compound also had a solubility at 4 h in series [5] (Water, 40° C.) above 400 mg/mL. Moreover, the “Hygroscopicity (statement in words)” value in series [6] was “hygroscopic”. Besides, the Stability when stored entry in series [6] (stored at room temperature) is “limited stability”.
